From ChEMBL document CHEMBL1201862, “PubChem BioAssay data set” (2004)
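Where inhibition never reached the appropriate level, the endpoint shown equals the highest concentration tested. Otherwise, values were interpolated linearly from a five-concentration, 48-hour dose response in 96-well plates. Abbreviation: GI50, concentration required for 50% inhibition of growth.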 Activity calls are given as the source filed them. Rule as the data show it: active = GI50 up to about 1.1 µM and inactive = higher.

What was measured:
Experiment in all cases: NCI tumour cell line growth inhibition, 48 h
EKVX = tested on: EKVX
HT-29 = tested on: HT-29
A498 = tested on: A498
SN12C = tested on: SN12C
NCI/ADR-RES = tested on: NCI/ADR-RES
SK-MEL-5 = tested on: SK-MEL-5
HOP-62 = tested on: HOP-62
SNB-19 = tested on: SNB-19
ACHN = tested on: ACHN
K562 = tested on: K562
OVCAR-4 = tested on: OVCAR-4
U-251 = tested on: U-251
SF-268 = tested on: SF-268
UACC-257 = tested on: UACC-257
786-0 = tested on: 786-0
UACC-62 = tested on: UACC-62
MOLT-4 = tested on: MOLT-4
RPMI-8226 = tested on: RPMI-8226
M14 = tested on: M14
MDA-N = tested on: MDA-N

Measured: GI50

CC1(C)N[PH]2(Nc3ccccc3O2)OC1=O
inactive: EKVX 84.3 µM | HT-29 > 100 µM | A498 > 100 µM | SN12C > 100 µM | NCI/ADR-RES 49.9 µM | SK-MEL-5 24.3 µM | HOP-62 > 100 µM | SNB-19 > 100 µM | ACHN 42.3 µM | K562 37.9 µM | OVCAR-4 > 100 µM | U-251 70.1 µM | SF-268 > 100 µM | UACC-257 > 100 µM | 786-0 > 100 µM | UACC-62 18.6 µM | MOLT-4 22.8 µM | RPMI-8226 5.32 µM | M14 38.5 µM | MDA-N 19.2 µM

CCOC(=O)/C(=C\NC(=S)Nc1ccc(OCC)cc1)C(=O)c1ccccc1
inactive: EKVX > 100 µM | HT-29 > 100 µM | A498 20.7 µM | SN12C > 100 µM | NCI/ADR-RES > 100 µM | SK-MEL-5 > 100 µM | HOP-62 > 100 µM | SNB-19 > 100 µM | ACHN > 100 µM | K562 > 100 µM | OVCAR-4 79.8 µM | U-251 > 100 µM | SF-268 > 100 µM | UACC-257 > 100 µM | 786-0 > 100 µM | UACC-62 > 100 µM | MOLT-4 > 100 µM | RPMI-8226 > 100 µM | M14 > 100 µM | MDA-N > 100 µM

C/N=c1\sc2nc(C#N)c(C#N)nc2n1C
inactive: EKVX 18.5 µM | HT-29 15.9 µM | A498 20.5 µM | SN12C 37.9 µM | NCI/ADR-RES 25.5 µM | SK-MEL-5 19.1 µM | HOP-62 23.4 µM | SNB-19 28.4 µM | ACHN 22.5 µM | K562 25.6 µM | OVCAR-4 22.9 µM | U-251 22.4 µM | SF-268 32.4 µM | UACC-257 24.2 µM | 786-0 25.8 µM | UACC-62 18.3 µM | MOLT-4 22.8 µM | RPMI-8226 44.4 µM | M14 23 µM | MDA-N 22.4 µM

CC(=O)OCc1ccc2oc(=O)c(C(=O)Oc3ccccc3)cc2c1
inactive: EKVX 37.8 µM | HT-29 30.1 µM | A498 > 100 µM | SN12C 30.1 µM | NCI/ADR-RES > 100 µM | SK-MEL-5 > 100 µM | HOP-62 > 100 µM | SNB-19 > 100 µM | ACHN 91.6 µM | K562 3.72 µM | OVCAR-4 > 100 µM | U-251 > 100 µM | SF-268 55.7 µM | UACC-257 > 100 µM | 786-0 20.3 µM | UACC-62 17.7 µM | MOLT-4 > 100 µM | RPMI-8226 > 100 µM | M14 > 100 µM | MDA-N > 100 µM

NC1CC(=O)c2csc(Br)c21 (stereo not given)
inactive: EKVX 15.1 µM | HT-29 19.6 µM | A498 > 36.5 µM | SN12C 13.4 µM | NCI/ADR-RES 20.1 µM | SK-MEL-5 20.9 µM | HOP-62 24.4 µM | SNB-19 23.3 µM | ACHN 16.4 µM | K562 5.97 µM | OVCAR-4 16.5 µM | U-251 18.1 µM | SF-268 20 µM | UACC-257 17.3 µM | 786-0 12.9 µM | UACC-62 16.5 µM | MOLT-4 15.1 µM | RPMI-8226 4.82 µM | M14 19.5 µM | MDA-N 13.6 µM

O=CN(O)CC(=O)O
inactive: EKVX > 100 µM | HT-29 > 100 µM | A498 > 100 µM | SN12C > 100 µM | NCI/ADR-RES > 100 µM | SK-MEL-5 > 100 µM | HOP-62 > 100 µM | SNB-19 > 100 µM | ACHN > 100 µM | K562 > 100 µM | OVCAR-4 > 100 µM | U-251 > 100 µM | SF-268 > 100 µM | UACC-257 > 100 µM | 786-0 > 100 µM | UACC-62 > 100 µM | MOLT-4 > 100 µM | RPMI-8226 > 100 µM | M14 > 100 µM | MDA-N > 100 µM

COC(=O)NCCc1n[nH]c2c1C(=O)C=C(Nc1ccccc1OC)C2=O
inactive: EKVX 32.8 µM | HT-29 28.1 µM | A498 31.7 µM | SN12C 40.3 µM | NCI/ADR-RES 21.1 µM | SK-MEL-5 13.7 µM | HOP-62 83.4 µM | SNB-19 > 100 µM | ACHN 38.6 µM | K562 30 µM | OVCAR-4 16.8 µM | U-251 24.8 µM | SF-268 45.7 µM | UACC-257 17 µM | 786-0 38 µM | UACC-62 18.7 µM | MOLT-4 21.8 µM | RPMI-8226 20.5 µM | M14 16.2 µM | MDA-N 18.1 µM
